Values joined by “and” are separate entries in the source; they are usually repeats but may differ in a detail not shown here. Equal entries are not always repeated. Where two headings read alike, the source gives them in different places.
What was measured:
[1] = tested on: advanced glycation end products (AGEs) formation, BSA-fructose model; assay: AGEs formation inhibition, BSA-fructose assay; type: biochemical; settings: AGEs fluorescence, 72 h, 37 °C; read-out: BSA-Fructose Model IC50 (Mean ± SE)
Procedure: (§1) The isolated compounds were prepared at final concentrations of 500 µM in DMSO in the BSA-fructose assay, and 1000 µM in all other AGEs assays. Compounds that exceeded 50% inhibition at this concentration were serially diluted to determine their IC50. All tests were conducted using quercetin (positive control).
According to the previous report, the inhibition test for AGE formation was assessed using the BSA-fructose model. Briefly, BSA (50 mg/mL) and fructose (1.25 M) (in 200 mM phosphate buffer, pH 7.4, with 0.02% sodium azide) were incubated with Sample/blank in the dark for 72 h at 37 °C, (1:1:1 by volume). On a microplate reader (Fluostar Omega BMG Labtech, Ortenberg, Germany), fluorescent AGEs were detected using excitation and emission wavelengths of 355 nm and 460 nm, respectively. Triplicates of all experiments were performed, and the percentage of AGEs inhibition was calculated.

[2] = target: T1, α-Glucosidase from Saccharomyces cerevisiae (Saccharomyces cerevisiae, UniProt P53341); assay: α-Glucosidase inhibition (pNPG colorimetric); type: biochemical
T1 construct: purchased Sigma-Aldrich G003
Procedure: α-Glucosidase from Saccharomyces cerevisiae (Sigma-Aldrich, St. Louis, MO, USA cat#G003) was used in this assay. Solutions of the different compounds were prepared in 1000 µM final concentrations in dimethyl sulfoxide (DMSO). Compounds that exceeded 50% inhibition at this concentration were serially diluted to determine their half-maximal inhibitory concentration (IC50).
Briefly, 25 μL of samples/blank were incubated for 10 min at 37 °C with 50 μL of α-glucosidase (0.6 U/mL) in phosphate buffer (0.1 M, pH 7) in 96-microwell plates. The mixture was then incubated at 37 °C for 5 min with 25 μL of 3 mM pNPG in phosphate buffer (pH 7). A microplate reader (TECAN, Männedorf, Switzerland) was used to measure p-nitrophenol release from pNPG substrate at 405 nm to determine enzyme activity. Then, % α-glucosidase inhibition was estimated.

[3] = Ferric reducing antioxidant power (FRAP) assay; settings: ascorbic acid equivalents; mean ± SD, n = 3
Procedure: Isolated compounds were dissolved in DMSO to prepare a 0.5 mg/mL concentration, meanwhile, the positive control (ascorbic acid) was used to prepare a stock solution of 1000 µM in water; from which seven concentrations were prepared including 15.625, 31.25, 62.5, 125, 250 and 500 µM to construct the dose-response curve. The method of the assay depends on the reduction of Fe^3+ to Fe^2+, which is chelated by 2,4,6-tris(2-pyridyl)-s-triazine (TPTZ) to form Fe^2+-TPTZ complex which is known as FRAP (ferric reducing antioxidant power). Briefly, 190 μL of FRAP reagent (300 mM sodium acetate buffer pH 3.6, 10 mM TPTZ, and 20 mM ferric chloride, (10:1:1)) was incubated in the dark with 10 μL of the isolated compound in a 96-well plate for 30 min at 37 °C and absorbance was determined at 620 nm using microplate reader (Tecan, San Jose, CA, USA). Data are represented as means (n = 3) ± SD and the antioxidant effect of the extract was calculated as µM Ascorbic acid equivalents by substitution in the linear regression equation (Supplementary Figure S3).

DPPH assay = settings: read-out: DPPH assay IC50 (Mean ± SE)
Procedure: Isolated compounds were prepared in final concentrations of 1000 µM in DMSO. Compounds that exceeded 50% inhibition at this concentration were serially diluted to determine their IC50. Ascorbic acid was used as a positive control, prepared in a concentration of 100 µM in water from which six concentrations were prepared to calculate its IC50. The method is based on the reduction of free radical of 2,2-diphenyl-1-picrylhydrazyl (DPPH). Briefly, in a 96-well plate, 20 μL of the isolated compound was incubated for 20 min in the absence of light with 180 μL of DPPH reagent (100 μM). The reduction of intensity in the color of DPPH was assessed on a microplate reader (TECAN, Männedorf, Switzerland) at 540 nm (Supplementary Table S2).

[4] = tested on: advanced glycation end products (AGEs) formation, arginine-methylglyoxal model; assay: AGEs formation inhibition, arginine-methylglyoxal assay; type: biochemical; settings: AGEs fluorescence, 72 h, 37 °C; read-out: Arginine-Methylglyoxal Model IC50 (Mean ± SE)
Procedure: as §1
The determination of the inhibitory effect of the isolated compounds on the formation of AGEs in the arginine methylglyoxal model was used as described previously with slight modification. Briefly, in black 96-microwell plates, a sample was incubated for 72 h at 37 °C in the dark with methylglyoxal (53.3 mM, in distilled water) and 106.6 mM arginine (in 200 mM phosphate buffer, pH 7.4, with 0.02% sodium azide), (1:1:1 v/v/v). On a microplate reader (Fluostar Omega/BMG Labtech/Germany), fluorescent AGEs were detected using excitation and emission wavelengths of 355 nm and 460 nm, respectively. Triplicates of all experiments were performed.

[5] = Saccharomyces cerevisiae enzyme, pNPG substrate, read-out: α-Glucosidase assay IC50 (Mean ± SE)

T1 sequence (P53341 whole entry): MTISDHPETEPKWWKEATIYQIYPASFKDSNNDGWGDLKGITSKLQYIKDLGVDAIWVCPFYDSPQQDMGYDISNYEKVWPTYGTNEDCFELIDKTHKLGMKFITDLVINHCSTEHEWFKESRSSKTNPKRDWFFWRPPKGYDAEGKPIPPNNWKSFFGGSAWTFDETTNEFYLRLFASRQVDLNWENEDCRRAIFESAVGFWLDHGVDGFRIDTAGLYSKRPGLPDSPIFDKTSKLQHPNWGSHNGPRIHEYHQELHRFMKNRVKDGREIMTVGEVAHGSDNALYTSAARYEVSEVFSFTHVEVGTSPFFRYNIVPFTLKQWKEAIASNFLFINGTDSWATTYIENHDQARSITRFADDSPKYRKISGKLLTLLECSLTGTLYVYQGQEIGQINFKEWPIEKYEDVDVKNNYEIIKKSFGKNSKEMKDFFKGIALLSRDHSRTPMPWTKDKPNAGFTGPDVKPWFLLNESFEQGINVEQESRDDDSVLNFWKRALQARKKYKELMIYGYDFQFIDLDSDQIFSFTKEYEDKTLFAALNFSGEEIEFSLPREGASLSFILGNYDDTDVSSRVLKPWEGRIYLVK

Compound | IC50 [1] | IC50 (DPPH assay) | IC50 [4] | IC50 [2, 5] | IC50 [2] | FRAP [3]
O=c1cc(-c2ccc(O)cc2)oc2cc(O[C@@H]3O[C@H](CO)[C@@H](O)[C@H](O)[C@H]3O)cc(O)c12 [Compound 1, apeginin-7-O-β-D-glucoside] | 303 µM | 366 µM | 474 µM | – | 408 µM | 0.225±0.003 mM AAE/mg and 0.23 mM AAE/mg
O=C(OC[C@H]1O[C@H](OC(=O)c2cc(O)c(O)c(O)c2)[C@H](O)[C@@H](OC(=O)c2cc(O)c(O)c(O)c2)[C@@H]1O)c1cc(O)c(O)c(O)c1 (stereo in doubt) [Compound 5, 1,3,6-trigalloyl glucose] | 35 µM | 4 µM | 226 µM | 4.5 µM | – | 7.228±0.279 mM AAE/mg and 7.23 mM AAE/mg
C[C@@H]1O[C@@H](OC[C@H]2O[C@@H](Oc3c(-c4ccc(O)c(O)c4)oc4cc(O)cc(O)c4c3=O)[C@H](O)[C@@H](O)[C@@H]2O)[C@H](O)[C@H](O)[C@H]1O [Compound 4, rutin] | 37 µM | 19 µM | 303 µM | – | 754 µM | 2.658±0.168 mM AAE/mg and 2.66 mM AAE/mg

The next lines start with results.

IC50 [1] | IC50 (DPPH assay) | IC50 [4] | IC50 [2, 5] | Compound | IC50 [2] | FRAP [3]
262 µM | 29 µM | 1140 µM | 545 µM | O=C(O)[C@H]1O[C@@H](Oc2c(-c3ccc(O)c(O)c3)oc3cc(O)cc(O)c3c2=O)[C@H](O)[C@@H](O)[C@@H]1O [Compound 2, quercetin-3-O-β-D-glucuronic acid] | – | 0.727±0.021 mM AAE/mg and 0.73 mM AAE/mg
500 µM | 123 µM | > 1200 µM | 385 µM | O=C(O)[C@H]1O[C@@H](Oc2c(-c3ccc(O)c(O)c3)oc3cc(O)cc(O)c3c2=O)[C@H](O)[C@@H](O)[C@H]1O [Compound 3, quercetin-3-O-β-D-galacturonic acid] | – | 0.494±0.066 mM AAE/mg and 0.49 mM AAE/mg

From article PMC9139161, “Phenolics from Chrozophora oblongifolia Aerial Parts as Inhibitors of α-Glucosidases and Advanced Glycation End Products: In-Vitro Assessment, Molecular Docking and Dynamics Studies” (Biology, 2022)
